Source: patent US12729209B2, “Macrocyclic compounds and methods of treatment” (University of Florida Research Foundation, Incorporated, priority 2020, dated 2026)
Numbered stars: 1 amine (or outer) side, 2 acyl side, 3 side chain; on linkers, the order of the positions; unused ones are H or OH. Square brackets hold non-standard residues; d marks the D form. Peptide text beside a SMILES is read from it. X1 = CN([C@H](C(=O)[*:2])[C@@H](O)C(N)=O)[*:1]; Pro(4S-Me) = C[C@@H]1CN[C@H](C(=O)O)C1; N(OH)Ala = C[C@H](NO)C(=O)O; Lac = C[C@H](O)C(=O)O; Dha = C=C(N)C(=O)O

What was measured:
[1] = from C=CCON(C(=O)[C@H]([C@@H](O[Si](C)(C)C(C)(C)C)C(=O)NC(c1ccccc1)(c1ccccc1)c1ccccc1)N(C)C(=O)C(C)OC(=O)[C@@H]1CC(C)CN1C(=O)OCC1c2ccccc2-c2ccccc21)[C@@H](C)C(=O)N[C@@H](C[Se]c1ccccc1)C(=O)OCC1c2ccccc2-c2ccccc21; amide bond; PyBOP/HOAt/DIEA; CH2Cl2; 0.61 mM; 25.0 °C; 24.0 h; 2 steps
[2] = system: HCT116^HIF-1α−/−HIF-2α−/− cells; experiment: MTT cell viability assay, isogenic HCT116 double knockout; assay type: cell-based, human; settings: 48 h, versus parental HCT116
Method: (§1) Parental HCT116, HCT116^HIF-1α−/−HIF-2α−/−, HCT116^HIF-1α−/−, HCT116^HIF-2α−/−, HCT116^WT KRAS along with normal colon cell line CCD841-CoN were cultured in Dulbecco's modified Eagle medium (DMEM, Life Technologies, USA) supplemented with 10% Fetal Bovine Serum (FBS, Sigma, USA) and maintained in 5% CO2 at 37° C. HCT116 cells (8,000 cells/well) and normal cells (3,000 cells/well) were seeded in 96-well plates, allowed to attach overnight and then treated with different concentrations of GB1 (1a) or solvent control (0.5% DMSO). Cell viability was measured 48 h following treatment with MTT dye using manufacturer's protocol (Promega). IC50 was determined by non-linear regression analysis using GraphPad Prism 8. Data are represented as average±SD (n=3).

[3] = system: melanoma (SK-MEL-5) cancer cells; experiment: NCI-60 screen, SK-MEL-5; assay type: cell-based; settings: NCI-60 data
From the text: (§2) FIG. 27 depicts a heatmap for the performance of GB1 across cell lines in the NCI-60 screen using three different values (growth-inhibitory effect, GI50; cytostatic effect, TGI; cytotoxic effect, LC50; concentration in M).

NCI-60 cell lines = settings: versus paclitaxel, eribulin, colchicine and vinca bis-indole alkaloid derivatives
From the text: Furthermore, cervical and breast cancers are relevant indications, prompting additional studies in these cell types^35.

[4] = Qualitative test for Fe(III) chelating ability; assay type: physicochemical; settings: FeCl3 solution in ethanol (5% wt), orange spot
From the text: We applied a solution of GB1 (1a) in CH2Cl2 to reverse TLC (C18) (MeOH/H2O 1:1, v/v), then dipped the TLC into FeCl3 solution in ethanol (5% wt).

HCT116^WT KRAS cells = experiment: MTT cell viability assay, oncogenic KRAS knockout; assay type: cell-based, human; settings: 48 h, versus parental HCT116
Method: as §1

HCT116^HIF-1α−/− cells = experiment: MTT cell viability assay, isogenic HCT116 HIF-1α knockout; assay type: cell-based, human; settings: 48 h, versus parental HCT116
Method: as §1

tubulin = experiment: Tubulin polymerization assay (fluorescence based in vitro kit); assay type: biochemical; settings: tubulin 2 mg/mL, 37° C., 1 hour
Method: Tubulin polymerization was performed using fluorescence based in vitro polymerization kit (Cytoskeleton, #BK011P) per the manufacturer recommendation. Briefly, the provided tubulin was reconstituted to 10 mg/mL stock, as recommended, and used at final concentration of 2 mg/mL in 80 mM PIPES pH 6.9, 2.0 mM MgCl2, 0.5 mM EGTA, 1.0 mM GTP and 15% glycerol for the assays. The compound was prepared in 3-fold dilutions and kept on ice until the assay was started. Buffer components and tubulin stocks were kept on ice until use. The assay plate was pre-warmed at 37° C. for 10 minutes and the compounds were added to the plate wells at 5 uL (<10% DMSO) for 1 minute to warm. Fifty microliters of tubulin reaction mix (2 mg/mL in 80 mM PIPES pH 6.9, 2.0 mM MgCl2, 0.5 mM EGTA, 1.0 mM GTP and 15% glycerol) was added to each well and mixed gently with the inhibitor to avoid bubble formation. The plate was read on FlexStation3 reader (Molecular Devices) at 360 nm excitation/450 nm emission, every minute for 1 hours at 37° C. Decrease in fluorescent signal indicated inhibition of polymerization.

HCT116 cells [5] = experiment: HCT116 cell cycle analysis (propidium iodide, flow cytometry); assay type: cell-based, human; settings: 320 nM, 1 μM, 3.2 μM, 24 h
Method: FIG. 25 depicts a cell cycle analysis. HCT116 cells were treated with GB1 (320 nM, 1 μM, 3.2 μM) or vehicle control (0.25% DMSO) for 24 h and DNA content assessed by flow cytometry of propidium iodide stained cells.
HCT116 cells were seeded in 6-well plates (400,000 cells/well, DMEM/10% FBS and allowed to attach overnight prior to treatment with GB1. Media was replaced by fresh DMEM/10% FBS after 24 h of incubation and treated with compound and solvent control (0.25% DMSO) for 24 h. The medium in each well was collected separately, and the cells washed with 500 μL PBS and collected into the corresponding tubes. Cells were detached using trypsin (Invitrogen) and collected into the corresponding tubes and centrifuged at 400 g for 10 min at 4° C. The supernatant was discarded and the cell pellets were resuspended in 500 μL ice-cold PBS, centrifuged at 400 g for 10 min at 4° C. and supernatant was discarded. The cell pellets were resuspended in 300 μL ice-cold PBS and 700 μL ice-cold EtOH was added slowly to each cell suspension with gentle pipetting. Cells were incubated at −20° C. overnight and centrifuged at 400 g for 10 min at 4° C. next day. […] Fluorescence from propidium iodide-DNA complexes were quantified using FACScan (BD Biosciences LSRFortessa) and data were analyzed using ModFit LT (Verity Software House).

[6] = system: ovarian (OVCAR-3) cancer cells; experiment: NCI-60 screen, OVCAR-3; assay type: cell-based; settings: NCI-60 data
From the text: as §2

COLO205 cells = experiment: NCI-60 screen (sulforhodamine B assay), COLO205; assay type: cell-based; settings: NCI-60 data, read-out: GI50 against COLO205 cells
From the text: as §2

[7] = system: HCT116 colorectal cancer cells; experiment: MTT cell viability assay, parental HCT116; assay type: cell-based, human; settings: for IC50: 48 h treatment, read-out: IC50 against HCT116 colorectal cancer cells
Method: as §1

[8] = system: CCD841-CoN normal epithelial colon cells; experiment: MTT cell viability assay, normal colon cells; assay type: cell-based; settings: 48 h treatment
Method: as §1

HeLa cells = experiment: Caspase-3/7 activity (Caspase-Glo 3/7) in HeLa cells; assay type: cell-based; settings: increasing concentrations, 14 h, 24 h and 36 h
Method: FIG. 29 depicts that GB1 causes apoptosis in HeLa cells with increased caspase activity. HeLa cells were treated with increasing concentrations of GB1 and combretastatin-4 (CA-4) (100 nM) using 0.5% DMSO as solvent control. Caspase-3/7 activity was measured using Caspase-Glo 3/7 reagent kit at 14 h, 24 h and 36 h. Data represents average of three replicates with ±SD. The p-values were calculated using two-tailed Student t-test; *p<0.05, **p<0.01, ***p<0.005.

HCT116^HIF-2α−/− cells = experiment: MTT cell viability assay, isogenic HCT116 HIF-2α knockout; assay type: cell-based, human; settings: 48 h, compared among isogenic lines
Method: as §1

HCT116 cells [9] = experiment: NCI-60 screen (sulforhodamine B assay), HCT116; assay type: cell-based, human; settings: NCI-60 data, read-out: GI50 against HCT116 cells
From the text: as §2

VEGFA = experiment: HIF target gene (VEGFA) expression by RT-qPCR; assay type: cell-based, human; settings: 3.2 μM (4×IC50), 16 h, parental HCT116 cells, β-actin endogenous control
Method: FIG. 26 depicts HIF target gene (VEGFA) expression after 16 h exposure of parental HCT116 cells to GB1 (3.2 μM) or vehicle (0.25% DMSO). RNA was isolated, reverse transcribed and subjected to qPCR using TaqMan analysis. β-actin served as endogenous control. Error bars indicate mean±SD of three replicates (student t test, *p<0.05).
HCT116 cells were seeded in 6-well plates at a density of 4×10^5 per well and incubated overnight for cells to attach. Cells were treated with 3.2 μM GB1 or 0.25% DMSO (vehicle). RNA was isolated 16 h later using the RNeasy mini kit (QIAGEN, Valencia, CA). Total RNA was quantified using NanoDrop 2000. cDNA synthesis was carried out using SuperScript II Reverse Transcriptase (Invitrogen, Carlsbad, CA) and oligo (dT) (Invitrogen) from 2 μg of total RNA. The qPCR after reverse transcription (RT-qPCR) was performed on a 25 μL reaction solution containing a […] aliquot of cDNA, 12.5 μL of TaqMan gene expression master mix, 1.25 μL of probes, and 11 μL RNase-free water. qPCR was carried out on an ABI 7300 sequence detection system using the thermocycler program: 2 min at 50° C., 10 min at 95° C., and 15 s at 95° C. (40 cycles) and 1 min at 60° C. Experiments were performed in triplicate. Probes for target gene: VEGFA (Hs00900055_m1) and for endogenous control: β-actin (Hs99999903_m1). […]

[10] = system: prostate (DU-145) cancer cells; experiment: NCI-60 screen, DU-145; assay type: cell-based; settings: NCI-60 data
From the text: as §2

Row | Compound | ring closure, yield of all isomers [1] | potency and efficacy against HCT116^HIF-1α−/−HIF-2α−/− [2] | susceptibility of SK-MEL-5 melanoma cells [3] | COMPARE correlation (P) of cytotoxicity profile with antimitotic/tubulin agents (NCI-60 cell lines) | Fe(III) chelating ability (FeCl3 on TLC) [4] | potency and efficacy against oncogenic KRAS knockout (HCT116^WT KRAS) (HCT116^WT KRAS cells) | potency and efficacy against HCT116^HIF-1α−/− (HCT116^HIF-1α−/− cells) | inhibition of tubulin polymerization in vitro (tubulin) | cell cycle effect (DNA content) (HCT116 cells [5]) | susceptibility of OVCAR-3 ovarian cancer cells [6] | GI50 (COLO205 cells) | antiproliferative activity, relative susceptibility of parental HCT116 cells ([7]; 48 h, compared among isogenic lines) | IC50 [7] | effect on the viability of CCD-841CoN normal epithelial colon cells [8] | IC50 ([8]; read-out: IC50 against normal mucosal colon cells) | caspase-3/7 activity / apoptosis in HeLa cells (HeLa cells) | antiproliferative activity, relative susceptibility of HCT116^HIF-2α−/− (HCT116^HIF-2α−/− cells) | GI50 (HCT116 cells [9]) | HIF-1α target gene VEGFA expression (VEGFA) | susceptibility of DU-145 prostate cancer cells [10]
1 | C=CCON1C(=O)[C@H]([C@@H](O[Si](C)(C)C(C)(C)C)C(=O)NC(c2ccccc2)(c2ccccc2)c2ccccc2)N(C)C(=O)C(C)OC(=O)[C@@H]2CC(C)CN2C(=O)[C@H](C[Se]c2ccccc2)NC(=O)[C@@H]1C (stereo partly drawn) | 60.3% |  |  |  |  |  |  |  |  |  |  |  |  |  |  |  |  |  |  | 
2 | C=C1NC(=O)[C@H](C)N(O)C(=O)[C@H]([C@@H](O)C(N)=O)N(C)C(=O)[C@H](C)OC(=O)[C@@H]2C[C@H](C)CN2C1=O [GB1, Gatorbulin-1] (cyclo([Dha][Pro(4S-Me)][Lac][X1][N(OH)Ala])) |  | reduced | susceptible | 0.75-0.85 | positive reaction | reduced | reduced | directly inhibits tubulin polymerization | induced G2/M accumulation | susceptible | 92 nM | most susceptible | 800 nM | marginal effect | > 10000 nM | induces apoptosis | most susceptible | 306 nM | downregulation | susceptible
3 | Gatorbulin-2 [GB2] |  |  |  |  |  |  |  |  |  |  |  |  | > 10000 nM |  |  |  |  |  |  | 
